Data taken from patent EP3910064A1, “PROCESS OF OBTAINING A PHLOROTANNIN-ENRICHED EXTRACT HAVING ANTI-ENZYMATIC ACTION FOR USE IN DERMATOLOGY” (Instituto Politécnico De Leiria, priority 2020, dated 2021).

Molecular target: collagenase
Test: Collagenase inhibition (analytical kit)
Assay type: biochemical
Conditions: confidence interval in parentheses
From the text: Table 2 - Inhibitory effect (IC50) of the different extracts obtained based on the interval of concentrations tested on the enzymes collagenase and elastase.

Compound: O=C(O[C@@H]1Cc2c(O)cc(O)cc2O[C@@H]1c1cc(O)c(O)c(O)c1)c1cc(O)c(O)c(O)c1 [Epigallocatechin gallate]
- IC50 Collagenase: 4.8 (4.10-5.50) µg/mL
